Source: patent publication US20090239917A1, “Heterocyclic Cycloalkyl Compounds, a Process for their Preparation and Pharmaceutical Compositions Containing Them” (Les Laboratoires Servier, priority 2006, published 2009)

Test system: ob/ob mouse
Assay: Antidiabetic and hypolipaemic effect in the ob/ob mouse
Type: in vivo
Text: Mutations in laboratory animals and also different sensitivities to dietary regimens have allowed the development of animal models having non-insulin-dependent diabetes and hyperlipidaemia associated with obesity and with resistance to insulin. Genetic mice models (ob/ob) (Diabetes, 1982, 31 (1), 1-6) and Zucker (fa/fa) rats have been developed by various laboratories in order to understand the physiopathology of those diseases and test the effectiveness of new antidiabetic compounds (Diabetes, 1983, 32, 830-838).
The 10-week-old male ob/ob mouse (Harlan) is used for the in vivo tests. The animals are kept in a light-darkness cycle of 12 hours at 25° C. This mouse has a basal hyperglycaemia of 2 g/l. The animals are randomly selected with regard to their glycaemia to form groups of eight. […] The control group receives the solvents under the same conditions as the treated groups. The activity of the products is evaluated by measuring glycaemia, insulinaemia and triglyceridaemia 24 hours after the final administration and by measuring body weight daily.

[1] = 3 mg/kg oral, once per day for four days, 24 hours after final administration

`O=C(c1ccc2c(c1)sc(=O)n2CCOc1ccc(C[C@H](OCC(F)(F)F)C(=O)[O-])cc1)C1CC1.[Na+]` [Example 9, Sodium (S)-3-{4-[2-(6-(cyclopropylcarbonyl)-2-oxo-1,3-benzothiazol-3(2H)-yl)ethoxy]phenyl}-2-(2,2,2-trifluoroethoxy)propanoate] was tested, and the reduction in glycaemia (1 mg/kg) was 39%, the reduction in insulinaemia (1 mg/kg) was 41% and the “reduction in the weight gain observed in the ob/ob control mice” value (1 mg/kg) was 14%. The reduction in triglyceridaemia (1 mg/kg) was 52%.
`O=C(c1ccc2c(c1)sc(=O)n2CCOc1ccc(CC(OCC(F)(F)F)C(=O)O)cc1)C1CC1` (stereo not shown) [Example 2, 3-{4-[2-(6-(Cyclopropylcarbonyl)-2-oxo-1,3-benzothiazol-3(2H)-yl)-ethoxy]phenyl}-2-(2,2,2-trifluoroethoxy)propanoic acid] was tested, and the “reduction of glycaemia vs control mice” value [1] was 42%, the “reduction of insulinaemia vs control mice” value [1] was 71% and the “reduction of triglyceridaemia vs control mice” value [1] was 45%.
